Data published in ChEMBL document CHEMBL3822358 (J Med Chem, 2016).
pIC50: −log10 of the molar value. ≈ marks a conversion by molar mass, not a printed value. Values belong to the molecule of their own block, whether it stands above or below them. Calls of active or inactive are those of the source. No cut-off for these calls is given here.

Assays:
[1] = target: Insulin-like growth factor 1 receptor (Homo sapiens, UniProt P08069)
[2] = target: Insulin receptor (Homo sapiens, UniProt P06213)
Description: Inhibition of human InsR using myelin basic protein as substrate and [gamma-33P]ATP measured after 1 hr

[3] = (§1) AUC (0 to infinity) in CD rat at 3 mg/kg, iv by LC-MS/MS analysis; format: ADME, organism-based; set-up: dose 3 mg/kg, time infinity, route intravenous; conditions: CD, in vivo
[4] = Clearance in CD rat at 3 mg/kg, iv by LC-MS/MS analysis; format: ADME, organism-based; conditions: in vivo
[5] = (§2) Half life in CD rat at 3 mg/kg, iv by LC-MS/MS analysis; format: ADME, organism-based; conditions: CD, in vivo
[6] = (§3) Volume of distribution at steady state in CD rat at 3 mg/kg, iv by LC-MS/MS analysis; format: ADME, organism-based; conditions: CD, in vivo, read-out: Vdss
[7] = Cmax in CD rat at 10 mg/kg, po by LC-MS/MS analysis; format: ADME, organism-based; set-up: dose 10 mg/kg, route oral; conditions: in vivo
[8] = AUC (0 to infinity) in CD rat at 10 mg/kg, po by LC-MS/MS analysis; format: ADME, organism-based; set-up: dose 10 mg/kg, route oral, time infinity; conditions: in vivo
[9] = Tmax in CD rat at 10 mg/kg, po by LC-MS/MS analysis; format: ADME, organism-based; conditions: in vivo
[10] = Half life in CD rat at 10 mg/kg, po by LC-MS/MS analysis; format: ADME, organism-based; conditions: in vivo
[11] = Oral bioavailability in CD rat at 10 mg/kg by LC-MS/MS analysis; format: ADME, organism-based; conditions: in vivo
[12] = Cmax in mouse at 10 mg/kg, po by LC-MS/MS analysis; format: ADME, organism-based; set-up: dose 10 mg/kg, route oral; conditions: in vivo
[13] = AUC (0 to 24 hrs) in mouse at 10 mg/kg, po by LC-MS/MS analysis; format: ADME, organism-based; set-up: time < 24 hr, dose 10 mg/kg, route oral; conditions: in vivo
[14] = Half life in mouse at 10 mg/kg, po by LC-MS/MS analysis; format: ADME, organism-based; conditions: in vivo
[15] = target: T1, ALK tyrosine kinase receptor (Homo sapiens, UniProt Q9UM73); assay: Inhibition of ALK phosphorylation in mouse xenografted with human KARPAS299 cells assessed as p-ALK level at 25 mg/kg, po administered as single dose measured after 10 hrs relative to 2 hrs vehicle-treated tumor; format: organism-based; set-up: scale not given: the % may be the effect or the level left; conditions: KARPAS-299
Target sequence in this assay (Q9UM73 19-1620 limits assumed): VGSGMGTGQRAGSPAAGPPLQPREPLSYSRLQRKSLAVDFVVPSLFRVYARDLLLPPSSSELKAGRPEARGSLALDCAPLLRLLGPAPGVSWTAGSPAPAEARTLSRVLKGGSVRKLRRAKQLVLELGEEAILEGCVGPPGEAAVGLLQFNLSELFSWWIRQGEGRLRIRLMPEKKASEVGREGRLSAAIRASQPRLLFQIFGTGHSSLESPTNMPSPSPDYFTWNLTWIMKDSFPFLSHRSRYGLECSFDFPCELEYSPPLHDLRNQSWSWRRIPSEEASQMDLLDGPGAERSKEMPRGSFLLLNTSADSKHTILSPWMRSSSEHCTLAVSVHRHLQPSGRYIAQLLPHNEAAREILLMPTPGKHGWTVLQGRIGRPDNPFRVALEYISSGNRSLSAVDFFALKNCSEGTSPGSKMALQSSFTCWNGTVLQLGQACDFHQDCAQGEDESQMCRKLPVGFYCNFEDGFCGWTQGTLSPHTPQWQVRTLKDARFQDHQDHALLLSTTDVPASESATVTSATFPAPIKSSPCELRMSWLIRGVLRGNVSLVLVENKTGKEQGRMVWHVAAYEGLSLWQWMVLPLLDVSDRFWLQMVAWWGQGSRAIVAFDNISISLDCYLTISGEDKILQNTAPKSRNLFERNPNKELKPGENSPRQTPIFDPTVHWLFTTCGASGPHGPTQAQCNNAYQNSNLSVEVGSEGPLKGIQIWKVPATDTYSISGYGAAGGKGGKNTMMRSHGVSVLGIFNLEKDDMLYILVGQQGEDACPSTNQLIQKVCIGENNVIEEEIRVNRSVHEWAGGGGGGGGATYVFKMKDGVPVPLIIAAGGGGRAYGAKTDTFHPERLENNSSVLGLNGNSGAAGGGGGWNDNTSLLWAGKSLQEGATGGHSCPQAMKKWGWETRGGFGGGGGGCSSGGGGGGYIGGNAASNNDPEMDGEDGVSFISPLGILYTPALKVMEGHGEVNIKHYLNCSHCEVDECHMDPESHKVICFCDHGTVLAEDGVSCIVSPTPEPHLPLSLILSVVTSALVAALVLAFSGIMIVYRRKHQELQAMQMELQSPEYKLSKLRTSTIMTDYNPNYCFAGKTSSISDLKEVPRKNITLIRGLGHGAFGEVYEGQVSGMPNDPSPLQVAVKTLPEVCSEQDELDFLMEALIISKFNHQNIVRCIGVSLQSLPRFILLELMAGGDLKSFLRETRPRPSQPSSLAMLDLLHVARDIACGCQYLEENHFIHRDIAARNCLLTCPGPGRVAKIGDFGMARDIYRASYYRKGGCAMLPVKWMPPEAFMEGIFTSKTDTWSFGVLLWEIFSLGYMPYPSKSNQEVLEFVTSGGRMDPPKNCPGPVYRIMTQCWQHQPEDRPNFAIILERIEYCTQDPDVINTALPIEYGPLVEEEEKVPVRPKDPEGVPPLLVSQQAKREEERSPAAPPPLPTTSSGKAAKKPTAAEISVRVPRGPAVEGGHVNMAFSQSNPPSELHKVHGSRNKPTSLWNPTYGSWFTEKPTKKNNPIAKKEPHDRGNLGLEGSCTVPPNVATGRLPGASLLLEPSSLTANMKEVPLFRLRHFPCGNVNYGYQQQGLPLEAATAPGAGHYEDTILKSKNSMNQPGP

[16] = target: T1, ALK tyrosine kinase receptor; assay: Inhibition of ALK phosphorylation in mouse xenografted with human KARPAS299 cells assessed as p-ALK level at 25 mg/kg, po administered as single dose measured after 16 hrs relative to 2 hrs vehicle-treated tumor; format: organism-based; set-up: scale not given: the % may be the effect or the level left; conditions: KARPAS-299
Target sequence in this assay (Q9UM73 19-1620 limits assumed): as above

[17] = target: T1, ALK tyrosine kinase receptor; assay: Inhibition of ALK phosphorylation in mouse xenografted with human KARPAS299 cells assessed as p-ALK level at 25 mg/kg, po administered as single dose measured after 24 hrs relative to 2 hrs vehicle-treated tumor; format: organism-based; set-up: scale not given: the % may be the effect or the level left; conditions: KARPAS-299
Target sequence in this assay (Q9UM73 19-1620 limits assumed): as above

[18] = target: T1, ALK tyrosine kinase receptor
Target sequence in this assay (Q9UM73 whole entry): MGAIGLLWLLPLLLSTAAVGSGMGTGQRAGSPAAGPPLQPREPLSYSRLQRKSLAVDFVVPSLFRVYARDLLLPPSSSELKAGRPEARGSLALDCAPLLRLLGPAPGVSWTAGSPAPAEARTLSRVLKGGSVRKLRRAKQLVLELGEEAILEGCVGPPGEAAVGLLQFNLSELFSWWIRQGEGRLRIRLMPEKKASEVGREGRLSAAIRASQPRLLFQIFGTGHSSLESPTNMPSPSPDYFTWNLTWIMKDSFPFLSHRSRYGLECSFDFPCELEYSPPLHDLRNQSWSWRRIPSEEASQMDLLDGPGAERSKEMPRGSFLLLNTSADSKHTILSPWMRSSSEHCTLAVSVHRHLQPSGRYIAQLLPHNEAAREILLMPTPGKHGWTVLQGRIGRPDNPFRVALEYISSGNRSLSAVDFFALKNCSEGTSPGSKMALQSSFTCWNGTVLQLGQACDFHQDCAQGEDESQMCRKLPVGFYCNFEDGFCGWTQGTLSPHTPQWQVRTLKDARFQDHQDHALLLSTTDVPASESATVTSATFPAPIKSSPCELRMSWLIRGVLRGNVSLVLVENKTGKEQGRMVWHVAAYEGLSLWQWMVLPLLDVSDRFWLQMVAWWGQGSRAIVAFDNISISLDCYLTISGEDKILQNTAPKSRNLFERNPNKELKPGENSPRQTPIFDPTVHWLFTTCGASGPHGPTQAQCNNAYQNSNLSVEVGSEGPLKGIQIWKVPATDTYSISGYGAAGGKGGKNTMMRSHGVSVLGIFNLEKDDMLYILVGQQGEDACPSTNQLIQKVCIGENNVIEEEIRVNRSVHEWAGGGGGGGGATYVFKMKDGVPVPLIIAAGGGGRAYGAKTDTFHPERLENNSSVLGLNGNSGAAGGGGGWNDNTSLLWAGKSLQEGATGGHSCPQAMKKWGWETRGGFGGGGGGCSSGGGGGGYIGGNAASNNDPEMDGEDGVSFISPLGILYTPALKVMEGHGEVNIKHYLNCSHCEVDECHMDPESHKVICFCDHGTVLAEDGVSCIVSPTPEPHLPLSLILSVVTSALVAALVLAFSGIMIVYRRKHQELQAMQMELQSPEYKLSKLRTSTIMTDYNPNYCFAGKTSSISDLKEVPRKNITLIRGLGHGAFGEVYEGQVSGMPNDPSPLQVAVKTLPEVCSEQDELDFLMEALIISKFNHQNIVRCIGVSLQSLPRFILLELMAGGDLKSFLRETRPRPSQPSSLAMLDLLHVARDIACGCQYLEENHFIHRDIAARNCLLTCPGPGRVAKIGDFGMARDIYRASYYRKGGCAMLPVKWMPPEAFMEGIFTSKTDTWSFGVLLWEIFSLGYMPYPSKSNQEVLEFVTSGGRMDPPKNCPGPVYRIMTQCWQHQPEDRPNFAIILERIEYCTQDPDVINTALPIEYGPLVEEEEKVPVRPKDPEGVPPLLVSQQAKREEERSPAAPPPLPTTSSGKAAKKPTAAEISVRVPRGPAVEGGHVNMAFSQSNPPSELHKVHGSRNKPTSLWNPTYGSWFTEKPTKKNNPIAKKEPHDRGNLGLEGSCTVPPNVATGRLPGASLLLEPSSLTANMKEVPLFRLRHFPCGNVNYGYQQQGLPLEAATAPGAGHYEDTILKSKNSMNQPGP
Description: Inhibition of human ALK using poly[Glu:Tyr] (4:1) as substrate and [gamma-33P]ATP measured after 1 hr

[19] = cells; conditions: Homo sapiens, KARPAS-299, 72 h
Description: Antiproliferative activity against human ALK-positive KARPAS299 cells assessed as reduction in cell viability measured after 72 hrs by CellTiter 96 aqueous one solution cell proliferation assay

[20] = cells; conditions: Homo sapiens, U-937, 72 h
Description: Antiproliferative activity against human ALK-negative U937 cells assessed as reduction in cell viability measured after 72 hrs by CellTiter 96 aqueous one solution cell proliferation assay

[21] = system: Rattus norvegicus; assay: as §1; format: ADME, organism-based; set-up: dose 3 mg/kg, time infinity, route intravenous; conditions: in vivo
[22] = system: Rattus norvegicus; assay: as §2; format: ADME, organism-based; conditions: in vivo
[23] = system: Rattus norvegicus; assay: as §3; format: ADME, organism-based; conditions: in vivo
[24] = system: KARPAS-299; assay: Antitumor activity against human KARPAS299 cells xenografted in SCID/beige mouse assessed as tumor growth inhibition administered orally once daily for 13 days relative to untreated control; format: functional, cell-based
[25] = system: KARPAS-299; assay: Antitumor activity against human KARPAS299 cells expressing […] fusion protein xenografted in SCID/beige mouse assessed as tumor regression at 50 mg/kg, po administered once daily for 13 days; format: functional, organism-based
[26] = system: Mus musculus; assay: Toxicity in SCID/beige mouse xenografted with human KARPAS299 cells expressing […] fusion protein at 50 mg/kg, po administered once daily for 13 days; format: organism-based, KARPAS-299; conditions: in vivo, 312 h
[27] = system: NCI-H3122; assay: Antitumor activity against human NCI-H3122 cells expressing EML4-ALK fusion protein xenografted in SCID/beige mouse assessed as tumor regression compound administered as once-daily oral dose for 19 days; format: functional, cell-based
[28] = system: Mus musculus; assay: Toxicity in SCID/beige mouse xenografted with human NCI-H3122 cells assessed as body weight loss at 10 to 50 mg/kg, po administered once daily for 19 days relative to vehicle-treated control; format: organism-based; conditions: in vivo, 456 h
[29] = target: Hepatocyte growth factor receptor (Homo sapiens) (UniProt P08581); assay: Inhibition of human c-Met using [KKKSPGEYVNIEFG as substrate and [gamma-33P]ATP up to 1 uM measured after 1 hr
[30] = target: Macrophage-stimulating protein receptor (Homo sapiens) (UniProt Q04912); assay: Inhibition of human Ron using KKSRGDYMTMQIG as substrate and [gamma-33P]ATP measured up to 1 uM after 1 hr
[31] = organism: Homo sapiens; assay: Inhibition of human EML4/ALK F1174C/V mutant
[32] = organism: Homo sapiens; assay: Inhibition of human EML4/ALK I1171N mutant
[33] = organism: Homo sapiens; assay: Inhibition of human EML4/ALK […] mutant
[34] = Protein binding in human plasma; format: ADME, cell-free; conditions: read-out: PPB (converted)
[35] = Protein binding in rat plasma; format: ADME, cell-free; conditions: read-out: PPB (converted)
[36] = Protein binding in mouse plasma; format: ADME, cell-free; conditions: read-out: PPB (converted)
[37] = Aqueous solubility of the compound at physiological pH; format: physicochemical; conditions: buffer
[38] = Lipophilicity, logD of the compound at pH 7; format: physicochemical; conditions: buffer
[39] = animal or person; conditions: Homo sapiens, KARPAS-299, po, 312 h, read-out: TGI
Description: Antitumor activity against human KARPAS299 cells expressing NMP-ALK fusion protein xenografted in SCID/beige mouse assessed as tumor growth inhibition at 10 mg/kg, po administered once daily for 13 days relative to untreated control

[40] = animal or person; conditions: Homo sapiens, KARPAS-299, po, 312 h, read-out: TGI; remark: listed apart in the source
Description: Antitumor activity against human KARPAS299 cells expressing NMP-ALK fusion protein xenografted in SCID/beige mouse assessed as tumor growth inhibition at 25 mg/kg, po administered once daily for 13 days relative to untreated control

[41] = animal or person; conditions: Homo sapiens, KARPAS-299, po, 312 h, read-out: TGI; remark: listed apart in the source
Description: Antitumor activity against human KARPAS299 cells expressing NMP-ALK fusion protein xenografted in SCID/beige mouse assessed as tumor growth inhibition at 50 mg/kg, po administered once daily for 13 days relative to untreated control

[42] = system: KARPAS-299; assay: Antitumor activity against human KARPAS299 cells expressing […] fusion protein xenografted in SCID/beige mouse assessed as tumor stasis at 50 mg/kg, po administered once daily for 13 days; format: functional, organism-based
[43] = target: T1, ALK tyrosine kinase receptor; assay: Inhibition of ALK phosphorylation in mouse xenografted with human KARPAS299 cells assessed as p-ALK level at 25 mg/kg, po administered as single dose measured after 8 hrs relative to 2 hrs vehicle-treated tumor; format: organism-based; set-up: scale not given: the % may be the effect or the level left; conditions: KARPAS-299
Target sequence in this assay (Q9UM73 19-1620 limits assumed): as the sequence (Q9UM73 19-1620 limits assumed) above

Sequence of Insulin-like growth factor 1 receptor (P08069 31-736 limits assumed): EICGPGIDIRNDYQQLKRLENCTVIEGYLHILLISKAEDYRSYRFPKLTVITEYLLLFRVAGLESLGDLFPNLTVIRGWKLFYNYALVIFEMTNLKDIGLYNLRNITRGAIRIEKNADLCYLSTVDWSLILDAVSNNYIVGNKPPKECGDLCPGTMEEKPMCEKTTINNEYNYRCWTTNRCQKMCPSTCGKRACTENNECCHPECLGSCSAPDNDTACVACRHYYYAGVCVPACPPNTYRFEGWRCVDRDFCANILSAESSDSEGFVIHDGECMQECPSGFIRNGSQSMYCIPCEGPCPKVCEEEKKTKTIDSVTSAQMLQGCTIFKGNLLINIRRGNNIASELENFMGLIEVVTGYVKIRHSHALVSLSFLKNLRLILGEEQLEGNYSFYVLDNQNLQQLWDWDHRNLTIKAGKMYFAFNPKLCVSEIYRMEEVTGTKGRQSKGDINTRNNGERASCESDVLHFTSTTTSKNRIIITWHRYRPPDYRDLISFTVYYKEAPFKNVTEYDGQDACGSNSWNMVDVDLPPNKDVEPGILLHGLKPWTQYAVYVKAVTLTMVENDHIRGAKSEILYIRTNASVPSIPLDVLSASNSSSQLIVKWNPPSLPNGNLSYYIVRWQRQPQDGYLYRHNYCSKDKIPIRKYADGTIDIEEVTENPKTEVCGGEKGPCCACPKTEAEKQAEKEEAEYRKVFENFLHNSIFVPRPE
Sequence of Insulin-like growth factor 1 receptor (P08069 741-1367 limits assumed): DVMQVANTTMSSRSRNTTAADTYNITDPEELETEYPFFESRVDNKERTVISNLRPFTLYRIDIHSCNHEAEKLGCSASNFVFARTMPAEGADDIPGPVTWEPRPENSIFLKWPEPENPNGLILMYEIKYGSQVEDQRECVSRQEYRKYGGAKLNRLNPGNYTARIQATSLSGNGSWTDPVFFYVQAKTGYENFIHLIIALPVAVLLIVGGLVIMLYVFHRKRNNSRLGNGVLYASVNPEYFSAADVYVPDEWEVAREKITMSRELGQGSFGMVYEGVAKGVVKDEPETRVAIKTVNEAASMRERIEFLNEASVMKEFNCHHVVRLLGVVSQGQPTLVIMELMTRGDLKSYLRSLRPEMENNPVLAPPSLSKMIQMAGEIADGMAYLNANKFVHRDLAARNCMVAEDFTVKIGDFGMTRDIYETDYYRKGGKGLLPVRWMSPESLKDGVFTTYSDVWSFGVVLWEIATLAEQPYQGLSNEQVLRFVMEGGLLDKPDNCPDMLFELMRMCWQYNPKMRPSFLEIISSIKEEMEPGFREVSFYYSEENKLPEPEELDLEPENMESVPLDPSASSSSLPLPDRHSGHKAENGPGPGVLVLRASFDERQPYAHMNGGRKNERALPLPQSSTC

pIC50 [1]: 7.06
pIC50 [2]: 6.46
AUC(0-inf) [3]: 5040 ng·h/mL
clearance [4]: 9.83 mL/min/kg
half-life [5]: 3.6 h
Vd [6]: 2.89 L/kg
Cmax [7]: 659 ng/mL
AUC(0-inf) [8]: 9220 ng·h/mL
Tmax [9]: 4 h
half-life [10]: 3.9 h
bioavailability [11]: 55%
Cmax [12]: 184 ng/mL
AUC(0-t) at 24 h [13]: 951 ng·h/mL
half-life [14]: 1.6 h
Activity [15]: 23%
Activity [16]: 125%
Activity [17]: 160%
pIC50 [18]: 9.27
pIC50 [19]: 7.26
pIC50 [20]: 5.34
SMILES: COc1cc(OC2CCN(C)CC2)ccc1Nc1ncc(Cl)c(Nc2ccccc2P(C)(C)=O)n1

pIC50 [1]: 7.60
pIC50 [2]: 6.71
AUC [21]: 2268 ng·h/mL
t1/2 [22]: 4.8 h
Vdss [23]: 7.8 L/kg
Cmax [7]: 305 ng/mL
AUC(0-inf) [8]: 3950 ng·h/mL
Tmax [9]: 4 h
half-life [10]: 3.4 h
bioavailability [11]: 52%
Cmax [12]: 448 ng/mL
AUC(0-t) at 24 h [13]: 5770 ng·h/mL
half-life [14]: 5.8 h
Activity [15]: 1%
Activity [16]: 7%
Activity [17]: 39%
inhibition [29]: inactive
inhibition [30]: inactive
inhibition [31]: Active
inhibition [32]: Active
inhibition [33]: Active
fraction unbound [34]: 0.34
fraction unbound [35]: 0.27
fraction unbound [36]: 0.36
solubility [37]: 337 µg/mL (≈ 577 µM)
logD [38]: 3.02
pIC50 [19]: 7.54
pIC50 [20]: 5.50
SMILES: COc1cc(N2CCC(N3CCN(C)CC3)CC2)ccc1Nc1ncc(Cl)c(Nc2ccccc2P(C)(C)=O)n1 [BRIGATINIB]
TGI [24]: Dose-dependent effect
Activity [25]: Active
Activity [26]: Non-toxic
Activity [27]: Dose-dependent effect
Activity [28]: Non-toxic
GI50 [19]: 10 nM
inhibition in vivo at 10 mg/kg [39]: 50%
inhibition in vivo at 25 mg/kg [40]: 12%
inhibition in vivo at 50 mg/kg [41]: -11%

pIC50 [1]: 7.69
pIC50 [2]: 7.04
AUC(0-inf) [3]: 3090 ng·h/mL
clearance [4]: 15.2 mL/min/kg
half-life [5]: 6.6 h
Vd [6]: 6.12 L/kg
Cmax [7]: 254 ng/mL
AUC(0-inf) [8]: 4060 ng·h/mL
Tmax [9]: 6 h
half-life [10]: 12.5 h
bioavailability [11]: 39%
Cmax [12]: 418 ng/mL
AUC(0-t) at 24 h [13]: 5180 ng·h/mL
half-life [14]: 2.7 h
Activity [15]: 2%
Activity [16]: 14%
Activity [17]: 94%
pIC50 [18]: 9.74
pIC50 [19]: 7.55
pIC50 [20]: 5.80
SMILES: COc1cc(N2CCN(C)CC2)ccc1Nc1ncc(Cl)c(Nc2ccccc2P(C)(C)=O)n1
TGI [24]: Dose-dependent effect
Activity [42]: Active
Activity [26]: Non-toxic
inhibition in vivo at 10 mg/kg [39]: 81%
inhibition in vivo at 25 mg/kg [40]: 41%
inhibition in vivo at 50 mg/kg [41]: 1.4%

pIC50 [1]: 7.57
pIC50 [2]: 6.77
AUC(0-inf) [3]: 4550 ng·h/mL
clearance [4]: 10.7 mL/min/kg
half-life [5]: 5.6 h
Vd [6]: 2.74 L/kg
Cmax [7]: 772 ng/mL
AUC(0-inf) [8]: 9720 ng·h/mL
Tmax [9]: 0.25 h
half-life [10]: 2.7 h
bioavailability [11]: 64%
Cmax [12]: 2940 ng/mL
AUC(0-t) at 24 h [13]: 13300 ng·h/mL
half-life [14]: 2.2 h
Activity [16]: 25%
Activity [17]: 168%
Activity [43]: 41%
pIC50 [18]: 9.44
pIC50 [19]: 7.15
pIC50 [20]: 5.14
SMILES: COc1cc(N2CCC(O)CC2)ccc1Nc1ncc(Cl)c(Nc2ccccc2P(C)(C)=O)n1
inhibition in vivo at 10 mg/kg [39]: 96%
inhibition in vivo at 25 mg/kg [40]: 85%
inhibition in vivo at 50 mg/kg [41]: 67%
